Data from patent publication US20260130395A1, “Water Dispersible Botanical Compositions” (Aquila Black Limited, priority 2021, published 2026).

Assay: Stability of cannabinoid compounds and Vitamin E components in Beverage 2 (AB Red) by LCMSMS
Assay type: physicochemical

## CCCCCc1cc(O)c2c(c1)OC(C)(C)[C@@H]1CCC(C)=C[C@@H]21 [D9 THC, delta-9-tetrahydrocannabinol, reference compound]
AB Red stored at 8° C., 570 days
  stability over the entire period (in words): high degree of stability
AB Red stored at 21-25° C., 570 days
  stability over the entire period (in words): high degree of stability
Stored at 8° C., 0 days
  Stability of Plant-Derived Cannabinoid Compounds in AB Red: 12.9 µg/mL
Stored at 8° C., 1 days
  Stability of Plant-Derived Cannabinoid Compounds in AB Red: 13.0 µg/mL
Stored at 8° C., 2 days
  Stability of Plant-Derived Cannabinoid Compounds in AB Red: 13.0 µg/mL
Stored at 8° C., 3 days
  Stability of Plant-Derived Cannabinoid Compounds in AB Red: 12.7 µg/mL
Stored at 8° C., 5 days
  Stability of Plant-Derived Cannabinoid Compounds in AB Red: 13.0 µg/mL
Stored at 8° C., 8 days
  Stability of Plant-Derived Cannabinoid Compounds in AB Red: 12.6 µg/mL
Stored at 8° C., 9 days
  Stability of Plant-Derived Cannabinoid Compounds in AB Red: 12.7 µg/mL
Stored at 8° C., 10 days
  Stability of Plant-Derived Cannabinoid Compounds in AB Red: 12.8 µg/mL
Stored at 8° C., 11 days
  Stability of Plant-Derived Cannabinoid Compounds in AB Red: 12.8 µg/mL
Stored at 8° C., 12 days
  Stability of Plant-Derived Cannabinoid Compounds in AB Red: 12.9 µg/mL
Stored at 8° C., 15 days
  Stability of Plant-Derived Cannabinoid Compounds in AB Red: 12.9 µg/mL
Stored at 8° C., 16 days
  Stability of Plant-Derived Cannabinoid Compounds in AB Red: 12.7 µg/mL
Stored at 8° C., 17 days
  Stability of Plant-Derived Cannabinoid Compounds in AB Red: 12.6 µg/mL
Stored at 8° C., 18 days
  Stability of Plant-Derived Cannabinoid Compounds in AB Red: 12.8 µg/mL
Stored at 8° C., 19 days
  Stability of Plant-Derived Cannabinoid Compounds in AB Red: 12.7 µg/mL
Stored at 8° C., 22 days
  Stability of Plant-Derived Cannabinoid Compounds in AB Red: 12.7 µg/mL
Stored at 8° C., 23 days
  Stability of Plant-Derived Cannabinoid Compounds in AB Red: 12.9 µg/mL
Stored at 8° C., 24 days
  Stability of Plant-Derived Cannabinoid Compounds in AB Red: 12.9 µg/mL
Stored at 8° C., 25 days
  Stability of Plant-Derived Cannabinoid Compounds in AB Red: 12.9 µg/mL
Stored at 8° C., 26 days
  Stability of Plant-Derived Cannabinoid Compounds in AB Red: 12.7 µg/mL
Stored at 8° C., 29 days
  Stability of Plant-Derived Cannabinoid Compounds in AB Red: 12.7 µg/mL
Stored at 8° C., 30 days
  Stability of Plant-Derived Cannabinoid Compounds in AB Red: 12.9 µg/mL
Stored at 8° C., 60 days
  Stability of Plant-Derived Cannabinoid Compounds in AB Red: 12.5 µg/mL
Stored at 8° C., 90 days
  Stability of Plant-Derived Cannabinoid Compounds in AB Red: 13.0 µg/mL
Stored at 8° C., 120 days
  Stability of Plant-Derived Cannabinoid Compounds in AB Red: 12.4 µg/mL
Stored at 8° C., 150 days
  Stability of Plant-Derived Cannabinoid Compounds in AB Red: 12.8 µg/mL
Stored at 8° C., 180 days
  Stability of Plant-Derived Cannabinoid Compounds in AB Red: 12.6 µg/mL
Stored at 8° C., 210 days
  Stability of Plant-Derived Cannabinoid Compounds in AB Red: 12.3 µg/mL
Stored at 8° C., 240 days
  Stability of Plant-Derived Cannabinoid Compounds in AB Red: 12.4 µg/mL
Stored at 8° C., 270 days
  Stability of Plant-Derived Cannabinoid Compounds in AB Red: 12.6 µg/mL
Stored at 8° C., 300 days
  Stability of Plant-Derived Cannabinoid Compounds in AB Red: 12.4 µg/mL
Stored at 8° C., 330 days
  Stability of Plant-Derived Cannabinoid Compounds in AB Red: 12.7 µg/mL
Stored at 8° C., 360 days
  Stability of Plant-Derived Cannabinoid Compounds in AB Red: 12.5 µg/mL
Stored at 8° C., 390 days
  Stability of Plant-Derived Cannabinoid Compounds in AB Red: 12.4 µg/mL
Stored at 8° C., 420 days
  Stability of Plant-Derived Cannabinoid Compounds in AB Red: 12.4 µg/mL
Stored at 8° C., 450 days
  Stability of Plant-Derived Cannabinoid Compounds in AB Red: 12.4 µg/mL
Stored at 8° C., 480 days
  Stability of Plant-Derived Cannabinoid Compounds in AB Red: 12.2 µg/mL
Stored at 8° C., 510 days
  Stability of Plant-Derived Cannabinoid Compounds in AB Red: 12.0 µg/mL
Stored at 8° C., 540 days
  Stability of Plant-Derived Cannabinoid Compounds in AB Red: 11.9 µg/mL
Stored at 8° C., 570 days
  Stability of Plant-Derived Cannabinoid Compounds in AB Red: 11.8 µg/mL
Stored at 21-25° C., 0 days
  Stability of Plant-Derived Cannabinoid Compounds in AB Red: 12.9 µg/mL
Stored at 21-25° C., 1 days
  Stability of Plant-Derived Cannabinoid Compounds in AB Red: 13.0 µg/mL
Stored at 21-25° C., 2 days
  Stability of Plant-Derived Cannabinoid Compounds in AB Red: 13.0 µg/mL
Stored at 21-25° C., 3 days
  Stability of Plant-Derived Cannabinoid Compounds in AB Red: 12.6 µg/mL
Stored at 21-25° C., 5 days
  Stability of Plant-Derived Cannabinoid Compounds in AB Red: 12.4 µg/mL
Stored at 21-25° C., 8 days
  Stability of Plant-Derived Cannabinoid Compounds in AB Red: 12.7 µg/mL
Stored at 21-25° C., 9 days
  Stability of Plant-Derived Cannabinoid Compounds in AB Red: 12.8 µg/mL
Stored at 21-25° C., 10 days
  Stability of Plant-Derived Cannabinoid Compounds in AB Red: 12.5 µg/mL
Stored at 21-25° C., 11 days
  Stability of Plant-Derived Cannabinoid Compounds in AB Red: 12.9 µg/mL
Stored at 21-25° C., 12 days
  Stability of Plant-Derived Cannabinoid Compounds in AB Red: 13.0 µg/mL
Stored at 21-25° C., 15 days
  Stability of Plant-Derived Cannabinoid Compounds in AB Red: 12.7 µg/mL
Stored at 21-25° C., 16 days
  Stability of Plant-Derived Cannabinoid Compounds in AB Red: 12.4 µg/mL
Stored at 21-25° C., 17 days
  Stability of Plant-Derived Cannabinoid Compounds in AB Red: 12.9 µg/mL
Stored at 21-25° C., 18 days
  Stability of Plant-Derived Cannabinoid Compounds in AB Red: 12.8 µg/mL
Stored at 21-25° C., 19 days
  Stability of Plant-Derived Cannabinoid Compounds in AB Red: 12.8 µg/mL
Stored at 21-25° C., 22 days
  Stability of Plant-Derived Cannabinoid Compounds in AB Red: 12.9 µg/mL
Stored at 21-25° C., 23 days
  Stability of Plant-Derived Cannabinoid Compounds in AB Red: 12.9 µg/mL
Stored at 21-25° C., 24 days
  Stability of Plant-Derived Cannabinoid Compounds in AB Red: 12.5 µg/mL
Stored at 21-25° C., 25 days
  Stability of Plant-Derived Cannabinoid Compounds in AB Red: 12.5 µg/mL
Stored at 21-25° C., 26 days
  Stability of Plant-Derived Cannabinoid Compounds in AB Red: 12.4 µg/mL
Stored at 21-25° C., 29 days
  Stability of Plant-Derived Cannabinoid Compounds in AB Red: 12.7 µg/mL
Stored at 21-25° C., 30 days
  Stability of Plant-Derived Cannabinoid Compounds in AB Red: 12.4 µg/mL
Stored at 21-25° C., 60 days
  Stability of Plant-Derived Cannabinoid Compounds in AB Red: 12.2 µg/mL
Stored at 21-25° C., 90 days
  Stability of Plant-Derived Cannabinoid Compounds in AB Red: 12.8 µg/mL
Stored at 21-25° C., 120 days
  Stability of Plant-Derived Cannabinoid Compounds in AB Red: 12.4 µg/mL
Stored at 21-25° C., 150 days
  Stability of Plant-Derived Cannabinoid Compounds in AB Red: 12.4 µg/mL
Stored at 21-25° C., 180 days
  Stability of Plant-Derived Cannabinoid Compounds in AB Red: 12.8 µg/mL
Stored at 21-25° C., 210 days
  Stability of Plant-Derived Cannabinoid Compounds in AB Red: 12.4 µg/mL
Stored at 21-25° C., 240 days
  Stability of Plant-Derived Cannabinoid Compounds in AB Red: 12.5 µg/mL
Stored at 21-25° C., 270 days
  Stability of Plant-Derived Cannabinoid Compounds in AB Red: 12.5 µg/mL
Stored at 21-25° C., 300 days
  Stability of Plant-Derived Cannabinoid Compounds in AB Red: 12.4 µg/mL
Stored at 21-25° C., 330 days
  Stability of Plant-Derived Cannabinoid Compounds in AB Red: 12.1 µg/mL
Stored at 21-25° C., 360 days
  Stability of Plant-Derived Cannabinoid Compounds in AB Red: 12.6 µg/mL
Stored at 21-25° C., 390 days
  Stability of Plant-Derived Cannabinoid Compounds in AB Red: 12.1 µg/mL
Stored at 21-25° C., 420 days
  Stability of Plant-Derived Cannabinoid Compounds in AB Red: 12.2 µg/mL
Stored at 21-25° C., 450 days
  Stability of Plant-Derived Cannabinoid Compounds in AB Red: 12.2 µg/mL
Stored at 21-25° C., 480 days
  Stability of Plant-Derived Cannabinoid Compounds in AB Red: 11.8 µg/mL
Stored at 21-25° C., 510 days
  Stability of Plant-Derived Cannabinoid Compounds in AB Red: 12.3 µg/mL
Stored at 21-25° C., 540 days
  Stability of Plant-Derived Cannabinoid Compounds in AB Red: 12.2 µg/mL
Stored at 21-25° C., 570 days
  Stability of Plant-Derived Cannabinoid Compounds in AB Red: 11.8 µg/mL
